Laboratory results as given in ChEMBL document CHEMBL1153383, “Novel 2- and 4-substituted 1H-imidazo[4,5-c]quinolin-4-amine derivatives as allosteric modulators of the A3 adenosine receptor” (J Med Chem, 2009).

Legend:
[1] = biological target: T1, Adenosine receptor A1 (Homo sapiens) (UniProt P30542); test: Displacement of [3H]CCPA from human recombinant adenosine A1 receptor expressed in CHO cells at 10 uM; format: cell-based
T1 sequence (whole entry): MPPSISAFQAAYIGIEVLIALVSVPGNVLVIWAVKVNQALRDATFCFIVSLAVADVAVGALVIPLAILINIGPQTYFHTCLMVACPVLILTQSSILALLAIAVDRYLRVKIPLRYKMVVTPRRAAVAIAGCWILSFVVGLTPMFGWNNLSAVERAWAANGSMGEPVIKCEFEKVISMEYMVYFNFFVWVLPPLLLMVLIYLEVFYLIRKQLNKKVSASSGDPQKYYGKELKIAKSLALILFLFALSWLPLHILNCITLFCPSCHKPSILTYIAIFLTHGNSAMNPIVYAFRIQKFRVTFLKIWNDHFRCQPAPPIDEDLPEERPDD

[2] = biological target: Adenosine receptor A2a (Homo sapiens) (UniProt P29274); test: Displacement of [3H]CGS21680 from human recombinant adenosine A2A receptor expressed in HEK293 cells at 10 uM; format: cell-based
[3] = biological target: T2, Adenosine receptor A3 (Homo sapiens) (UniProt P0DMS8); test: Displacement of [125I]I-AB-MECA from human recombinant adenosine A3 receptor expressed in CHO cells at 10 uM; format: cell-based
T2 sequence (whole entry): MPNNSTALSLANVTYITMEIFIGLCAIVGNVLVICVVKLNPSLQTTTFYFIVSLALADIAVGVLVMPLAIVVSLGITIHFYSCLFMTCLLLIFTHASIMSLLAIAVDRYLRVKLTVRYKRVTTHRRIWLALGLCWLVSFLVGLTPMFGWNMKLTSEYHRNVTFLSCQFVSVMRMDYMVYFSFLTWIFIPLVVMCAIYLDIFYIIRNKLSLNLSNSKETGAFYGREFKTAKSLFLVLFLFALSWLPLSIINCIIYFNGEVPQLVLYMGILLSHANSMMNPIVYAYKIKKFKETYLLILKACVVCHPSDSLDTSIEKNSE

[4] = biological target: T2, Adenosine receptor A3 (Homo sapiens); test: Decrease in dissociation of [125I]I-AB-MECA from human recombinant adenosine A3 receptor expressed in CHO cells at 10 uM after 60 mins relative to control; format: cell-based; parameters: scale not given: the % may be the effect or the level left
[5] = biological target: T2, Adenosine receptor A3 (Homo sapiens); test: Increase in efficacy of stimulation of [35S]GTPgammaS binding to human adenosine A3 receptor expressed in CHO cells at 10 uM by liquid scintillation counting relative to C1-IB-MECA; format: functional, cell-based

Chain of Adenosine receptor A2a (Homo sapiens) (P29274 whole entry): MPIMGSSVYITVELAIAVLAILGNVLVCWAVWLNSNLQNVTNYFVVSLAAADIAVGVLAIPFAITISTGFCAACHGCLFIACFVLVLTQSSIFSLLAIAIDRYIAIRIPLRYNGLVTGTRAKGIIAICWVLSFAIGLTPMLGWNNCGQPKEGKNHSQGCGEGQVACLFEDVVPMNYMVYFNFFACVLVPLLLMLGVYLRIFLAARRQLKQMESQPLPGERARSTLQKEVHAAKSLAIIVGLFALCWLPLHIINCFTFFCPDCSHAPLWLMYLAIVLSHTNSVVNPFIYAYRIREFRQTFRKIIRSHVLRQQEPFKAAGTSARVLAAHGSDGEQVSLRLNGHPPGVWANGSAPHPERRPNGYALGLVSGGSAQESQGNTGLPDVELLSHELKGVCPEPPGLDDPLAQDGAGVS

Activity [1] | Activity [2] | Activity [3] | Activity [4] | Activity [5] | Structure (SMILES)
73.1% | 78.1% | 64.8% | 114% | 119% | c1cncc(Nc2nc3ccccc3c3[nH]c(C4CCCCC4)nc23)c1
14.5% | -17.3% | 3.3% | 139% | – | Clc1ccc(Nc2nc3ccccc3c3[nH]c(C45CC6CC(CC4C6)C5)nc23)cc1Cl
17.8% | -3.1% | 46.3% | 93% | – | Clc1ccc(Nc2nc3ccccc3c3[nH]c(C4CCN(Cc5ccccc5)CC4)nc23)cc1Cl
33.1% | 37.2% | 42.2% | 129% | 138% | N#Cc1ccc(Nc2nc3ccccc3c3nc(C4CCCCC4)[nH]c23)cc1C#N
20.2% | 8.8% | 29.8% | 91% | – | O=C(c1ccccc1)N1CCC(c2nc3c(Nc4ccc(Cl)c(Cl)c4)nc4ccccc4c3[nH]2)CC1
16.7% | -11.4% | 32.7% | 184% | 209% | Clc1cc(Cl)cc(Nc2nc3ccccc3c3[nH]c(C4CCCCC4)nc23)c1
31.7% | 15.8% | 4.2% | 107% | – | N[C@H]1CC[C@@H](c2nc3c(Nc4ccc(Cl)c(Cl)c4)nc4ccccc4c3[nH]2)CC1
37% | -11.2% | – | – | – | Clc1ccc(Nc2nc3ccccc3c3nc(C4CCCCC4)[nH]c23)cc1Cl
12.4% | 43.4% | 35.3% | 92% | – | O=C(c1ccccc1)N1CCC(c2nc3c(Nc4ccccc4)nc4ccccc4c3[nH]2)CC1
-4.2% | -2.2% | – | – | – | Clc1ccc(Nc2nc3ccccc3c3[nH]c(C4CCCCCC4)nc23)cc1Cl
10.9% | 7% | 52.8% | 101% | – | Clc1ccc(Nc2nc3ccccc3c3[nH]c(C4CCNCC4)nc23)cc1Cl
7.2% | 15.6% | 21.8% | 137% | 143% | FC(F)(F)c1cc(Nc2nc3ccccc3c3nc(C4CCCCC4)[nH]c23)cc(C(F)(F)F)c1
53.3% | 42.8% | 79.2% | 194% | 200% | Clc1cccc(Nc2nc3ccccc3c3[nH]c(C4CCCCC4)nc23)c1
77.9% | 5.8% | 61.2% | 187% | – | Clc1ccc(Nc2nc3ccccc3c3[nH]c([C@H]4C[C@H]5CC[C@@H]4C5)nc23)cc1Cl
36.6% | 17.2% | 70.1% | 188% | 171% | Fc1cc(F)cc(Nc2nc3ccccc3c3[nH]c(C4CCCCC4)nc23)c1
44.8% | 39.4% | 50.5% | 168% | – | Clc1ccc(Nc2nc3ccccc3c3[nH]c([C@H]4C[C@H]5CC[C@H]4C5)nc23)cc1Cl
21.4% | 56.8% | 5.6% | 102% | – | O=C1c2ccccc2C(=O)N1[C@H]1CC[C@@H](c2nc3c(Nc4ccc(Cl)c(Cl)c4)nc4ccccc4c3[nH]2)CC1
48% | 67.2% | 43.9% | 174% | 187% | Clc1ccc(Nc2nc3ccccc3c3[nH]c(C4CCCCC4)nc23)c(Cl)c1
14.6% | 26.5% | 68.8% | 187% | 197% | Fc1ccc(Nc2nc3ccccc3c3[nH]c(C4CCCCC4)nc23)cc1F
-5.2% | – | – | – | – | Clc1ccc(Nc2nc3ccccc3c3[nH]c(C4CCC4)nc23)cc1Cl
65.4% | 49% | 83.9% | 185% | 166% | c1ccc2c(c1)nc(Nc1ccc3c(c1)OCO3)c1nc(C3CCCCC3)[nH]c12
37.2% | -11.9% | 69.6% | 115% | – | Clc1ccc(Nc2nc3ccccc3c3[nH]c(C4CCOCC4)nc23)cc1Cl

Structure (SMILES) | Activity [1] | Activity [2] | Activity [3] | Activity [4] | Activity [5]
Clc1ccc(Nc2nc3ccccc3c3[nH]c(C45CC6CC(CC(C6)C4)C5)nc23)cc1Cl | 13.8% | -4.4% | 17.2% | 196% | –
COc1ccc(Nc2nc3ccccc3c3[nH]c(C4CCCCC4)nc23)cc1OC | 75.6% | 93.8% | 98.4% | 173% | 182%
Clc1ccc(Nc2nc3ccccc3c3[nH]c(C4CCCC4)nc23)cc1Cl | – | 0% | – | – | –
